# Assay: physchem
# Settings: buffer, pH 6.5
row,solubility thermodynamic at 4 h,Compound
1,124 µM,COCCCNC(=O)c1cc(S(N)(=O)=O)cnc1Sc1c(F)c(F)cc(F)c1F
2,395 µM,CCNC(=O)c1cc(S(N)(=O)=O)cc(F)c1SCC(C)C
3,3090 µM,NCCCCNC(=O)c1cc(S(N)(=O)=O)cnc1Sc1c(F)c(F)cc(F)c1F
4,231 µM,NS(=O)(=O)c1ccc(Sc2c(F)c(F)cc(F)c2F)nc1

# Assay: Solubility at pH 6.5 after 24 hrs by chemiluminescence assay
# Assay type: physicochemical
# Settings: buffer
row,solubility at 24 h,Compound
1,< 22.2 µM,NS(=O)(=O)c1cnc(Sc2ccccc2)c(C(=O)NCCc2ccccc2)c1
2,> 253 µM,NS(=O)(=O)c1ccc(Sc2ccccn2)c(C(=O)NCc2ccccn2)c1
3,< 24.2 µM,NS(=O)(=O)c1ccc(SCc2ccccc2)c(C(=O)NCc2ccccc2)c1
4,118 µM,CCNC(=O)c1cc(S(N)(=O)=O)cnc1Sc1ccccc1
5,40.9 µM,COCCCNC(=O)c1cc(S(N)(=O)=O)cnc1Sc1ccc(F)c(F)c1
6,> 304 µM,COCCNC(=O)c1cc(S(N)(=O)=O)ccc1SCCc1ccccc1
7,55.9 µM,NS(=O)(=O)c1ccc(S(=O)(=O)c2ccccc2)c(C(=O)NCc2ccccc2)c1
8,< 21.2 µM,NS(=O)(=O)c1cnc(Sc2c(F)c(F)cc(F)c2F)c(C(=O)NCc2ccccn2)c1
9,214 µM,COCCCNC(=O)c1cc(S(N)(=O)=O)cnc1Sc1c(F)c(F)cc(F)c1F
10,> 265 µM,CN(C)CCNC(=O)c1cc(S(N)(=O)=O)cnc1Sc1ccccc1
11,205 µM,CCNC(=O)c1cc(S(N)(=O)=O)ccc1Sc1ccccc1
12,> 275 µM,NS(=O)(=O)c1ccc(Sc2ccccc2)c(C(=O)NCc2ccccn2)c1
13,< 19.9 µM,COc1ccc(CNC(=O)c2cc(S(N)(=O)=O)cnc2Sc2ccc(F)c(F)c2)cc1
14,553 µM,CCNC(=O)c1cc(S(N)(=O)=O)cc(F)c1SCC(C)C
15,689 µM,CC(C)CNC(=O)c1cc(S(N)(=O)=O)ccc1SC(C)C
16,< 25.1 µM,NS(=O)(=O)c1ccc(Sc2ccccc2)c(C(=O)NCc2ccccc2)c1

row,solubility at 24 h,Compound
1,> 258 µM,NS(=O)(=O)c1ccc(Sc2ccccc2CO)c(C(=O)NCc2ccccn2)c1
2,449 µM,CCNCc1cc(S(N)(=O)=O)cnc1Sc1ccc(F)c(F)c1
3,> 287 µM,COCCCNC(=O)c1cc(S(N)(=O)=O)cnc1Sc1ccccc1
4,28.5 µM,NS(=O)(=O)c1ccc(Oc2ccccc2)c(C(=O)NCc2ccccc2)c1
5,156 µM,CCCNC(=O)c1cc(S(N)(=O)=O)cnc1Sc1ccccc1
6,> 265 µM,NCCCCNC(=O)c1cc(S(N)(=O)=O)cnc1Sc1c(F)c(F)cc(F)c1F
7,43.2 µM,CCNC(=O)c1cc(S(N)(=O)=O)cnc1Sc1cccc(F)c1
8,211 µM,NS(=O)(=O)c1ccc(Sc2c(F)c(F)cc(F)c2F)c(C(=O)NCCc2ccccn2)c1
9,> 353 µM,NS(=O)(=O)c1cnc(Sc2ccc(F)c(F)c2)c(CO)c1
10,89.6 µM,COCCCNC(=O)c1cc(S(N)(=O)=O)cnc1Sc1cccc(F)c1
11,35.6 µM,COCCNC(=O)c1cc(S(N)(=O)=O)cnc1Sc1ccccc1
12,< 19 µM,COc1ccc(CCCNC(=O)c2cc(S(N)(=O)=O)cnc2Sc2c(F)c(F)cc(F)c2F)cc1
13,498 µM,CCNC(=O)c1cc(S(N)(=O)=O)cc(F)c1SC(C)C
14,497 µM,COCCCNCc1cc(S(N)(=O)=O)cnc1Sc1ccc(F)c(F)c1
15,628 µM,CCNC(=O)c1cc(S(N)(=O)=O)ccc1SC1CCCC1
16,558 µM,NS(=O)(=O)c1ccc(Sc2c(F)c(F)cc(F)c2F)nc1
